Data taken from PMC9865645, “The Impact of N^ε-Acryloyllysine Piperazides on the Conformational Dynamics of Transglutaminase 2” (International Journal of Molecular Sciences, 2023).
Where two headings read alike, the source gives them in different places.

Assays:
[1] = parameters: method as in doi:10.1039/DT9920002039, PMID 1868851; settings: cited from earlier work
commercial His6-hTGase 2 [2] = target: T1, commercial His6-hTGase 2 (Homo sapiens, UniProt P21980); assay: fluorescence anisotropy (FA)-based transamidase activity assay, commercial His6-hTGase 2; assay type: biochemical; settings: 5 min pre-incubation of enzyme and inhibitor; mean (SEM) of three experiments
T1 construct: purchased Zedira (Darmstadt, Germany) T022, lot 0716a
T1 sequence (P21980 1-687): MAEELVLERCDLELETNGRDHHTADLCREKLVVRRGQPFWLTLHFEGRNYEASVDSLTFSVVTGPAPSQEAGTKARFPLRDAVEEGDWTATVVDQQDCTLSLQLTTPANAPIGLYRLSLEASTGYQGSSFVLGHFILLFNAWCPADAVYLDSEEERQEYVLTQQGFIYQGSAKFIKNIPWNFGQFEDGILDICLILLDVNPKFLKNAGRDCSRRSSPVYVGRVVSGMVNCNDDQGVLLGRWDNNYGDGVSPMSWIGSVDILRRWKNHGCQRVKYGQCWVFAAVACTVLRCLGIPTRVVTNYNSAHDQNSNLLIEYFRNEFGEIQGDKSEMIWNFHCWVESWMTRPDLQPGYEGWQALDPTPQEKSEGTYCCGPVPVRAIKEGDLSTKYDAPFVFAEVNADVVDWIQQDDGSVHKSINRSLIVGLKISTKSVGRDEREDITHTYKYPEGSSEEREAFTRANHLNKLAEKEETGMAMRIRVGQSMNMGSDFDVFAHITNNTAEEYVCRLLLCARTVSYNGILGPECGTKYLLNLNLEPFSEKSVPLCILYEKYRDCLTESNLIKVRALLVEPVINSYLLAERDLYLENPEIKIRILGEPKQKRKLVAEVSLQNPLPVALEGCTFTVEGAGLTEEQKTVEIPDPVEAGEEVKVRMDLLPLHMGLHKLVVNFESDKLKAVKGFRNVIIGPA
Method: (§1) For the analysis of inhibitor 1 on self-produced hTGase 2, 2 µg/mL of the enzyme was used to guarantee comparability with the value reported by Wodtke et al., whereas all other experiments were performed with 5 µg/mL of either commercial or self-produced hTGase 2 (corresponding to 64.1 and 61.6 nM, respectively, when assuming 100% active protein). Parallel and perpendicular fluorescence intensities were measured over 1190 s in 35 s intervals (1) or over 1776 s in 48 s intervals (2, 3) and used to calculate the FA. Data of FA for the first 875 s (1) or 384 s (2, 3) were analyzed by linear regression, with slopes corresponding to enzymatic rates. Rates in the presence of inhibitor were normalized by dividing them by the respective rate in the absence of inhibitor, and normalized rates were analyzed according to Equation (S29) in Supplementary Materials to calculate values of IC50. Data analysis was performed with Microsoft Excel (Microsoft Office Professional Plus 2016, Microsoft® Corporation, USA) and GraphPad Prism version 5.03 or version 6.07 for Windows (GraphPad Software, La Jolla, CA, USA).

[3] = target: T2, in-house produced N-terminally Twin-Strep-tagged hTGase 2 (Homo sapiens, UniProt P21980); assay: fluorescence anisotropy (FA)-based transamidase activity assay, in-house Twin-Strep-tagged hTGase 2; assay type: biochemical; settings: 5 min pre-incubation of enzyme and inhibitor; mean (SEM) of three experiments
T2 construct: thrombin cleavage site (N); made in house; host or cells: E. coli BL21(DE3)
T2 sequence (P21980 1-687): T1 sequence (P21980 1-687)
Source text: The gene of hTGase 2 (Uniprot ID: P21980) with an N-terminal thrombin cleavage site was cloned into the pPSG-IBA105 vector containing the sequence for an N-terminal Twin-Strep-tag (IBA Lifesciences GmbH, Göttingen, Germany) to obtain the final plasmid pPSG-IBA105/TCS-hTGase 2. The plasmid construct was verified by DNA sequencing (Eurofins Genomics Germany GmbH) and then transformed into E. coli BL21(DE3) by the heat–shock method. hTGase 2-expressing E. coli cells were lysed by lysozyme treatment, and hTGase 2 was purified by affinity chromatography on an ÄKTA purifier UPC 10 FPLC equipped with a Strep-Tactin XT cartridge (GE Healthcare Europe GmbH, Freiburg, Germany). Identity and purity of self-produced hTGase 2 were verified by SDS-PAGE and Western Blot analysis, respectively. Protein concentration was determined according to Bradford. More detailed descriptions of the generation and characterization of the final plasmid construct pPSG-IBA105/TCS-hTGase 2 and the expression, purification, and characterization of the self-produced hTGase 2 protein will be published elsewhere (manuscript in preparation).
as §1

hTGase 2 = target: T3, hTGase 2 (Homo sapiens, UniProt P21980); assay: switchSENSE dynamic mode: upward motion (relative inverse slope, friction) of hTGase 2-dsDNA lever; settings: 10 µM inhibitor with 1 mM Ca^2+, 0.1% DMSO, then pure TE40; non-directed labeling
T3 construct: purchased Zedira (Darmstadt, Germany) T022, lot 0716a
T3 sequence (P21980 1-687): T1 sequence (P21980 1-687)
Method: Prior to the measurement of the switching kinetics of the differently conjugated hTGase 2, a complementary ssDNA without the enzyme (500 nM) was hybridized to the single-stranded capture strands on the chip electrodes to obtain the reference kinetics of the dsDNA lever. In addition, to determine the impact of CaCl2 and DMSO on the movement of the bare dsDNA lever, and thus on reference kinetics, its switching behavior was investigated in TE40, TE40 + 1 mM CaCl2, TE40 + 1 mM CaCl2 + 1% DMSO or TE40 + 1 mM CaCl2 + 0.1% DMSO.
Then, the dehybridization of the reference lever occurred during a regeneration step followed by the hybridization with an ssDNA-hTGase 2 conjugate (500 nM). Thereafter, the switching kinetics was recorded. […]
The impact on the hydrodynamic drag of the hTGase 2-functionalized lever was investigated under identical conditions for the three irreversible inhibitors 1–3: At first, the switching kinetics of the dsDNA lever and the hTGase 2-dsDNA conjugates were recorded. Secondly, the switching kinetics of the hTGase 2-dsDNA conjugates during and after Ca^2+ exposure were recorded using TE40 + 1 mM CaCl2 or TE40, respectively. […] In this process, the hydrodynamic drag was analyzed during the exposure to 10 µM inhibitor (for 6 min) dissolved in TE40 + 1 mM CaCl2 + 0.1% DMSO and to TE40 afterward. […]

His6-hTGase 2 [4] = target: T4, His6-hTGase 2 (Homo sapiens, UniProt P21980); assay: fluorimetric activity assay (substrate Z-Glu(HMC)-Gly-OH) for kinact/KI; assay type: biochemical; settings: mean (SEM) of two to four experiments
T4 construct: purchased Zedira (Darmstadt, Germany) T022, lot 0716a
T4 sequence (P21980 1-687): T1 sequence (P21980 1-687)

commercial His6-hTGase 2 [5] = target: T1, commercial His6-hTGase 2; parameters: method as in PMID 29664627; settings: 5 min pre-incubation of enzyme and inhibitor; mean (SEM); previously reported; cited from earlier work
His6-hTGase 2 [6] = target: T4, His6-hTGase 2; parameters: method as in PMID 29664627; settings: mean (SEM); previously reported; cited from earlier work

Structure (SMILES)	pK value of H2GTP^3− (γP-OH) [1]	pK value of H3GTP^2− (N7^+H) [1]	pK value of HGTP^4− (N1H) [1]	IC50 (commercial His6-hTGase 2 [2]) [nM]	IC50 [3] [nM]	friction (relative inverse slope) after removal of Ca^2+ and inhibitor ("after Ca^2+ + inhibitor") (hTGase 2)	kinact/KI (His6-hTGase 2 [4]) [M⁻¹ s⁻¹]	IC50 (commercial His6-hTGase 2 [5]) [nM]	kinact/KI (His6-hTGase 2 [6])
Nc1nc2c(ncn2[C@@H]2O[C@H](COP(=O)(O)OP(=O)(O)OP(=O)(O)O)[C@@H](O)[C@H]2O)c(=O)[nH]1 [GTP]	6.5	2.9	9.6						
C=CC(=O)NCCCCC(NC(=O)Cc1ccccc1I)C(=O)N1CCN(c2ccc(C(F)(F)F)nc2)CC1 [Compound 3, N^α-(2-Iodophenylacetyl)-N^ε-acryloyl-L-lysin-4-(2-trifluoromethyl-5-yl)piperazide]				280	209	significantly higher compared to “w/o” and “after Ca^2+”	4500		
C=CC(=O)NCCCCC(NC(=O)Cc1ccccc1)C(=O)N1CCN(c2cccc(F)n2)CC1 (stereo not shown) [Compound 1]					135			108	3850 (240) ^e M^−1s^−1
